Assay results reported in PubChem BioAssay AID292 (DTP/NCI, 2004).
Values joined by “and” are separate entries in the source; they are usually repeats but may differ in a detail not shown here. Equal values may be shown once. Inconclusive results and toxic doses are left out.

System: B6C3F1 mice, ip Sarcoma M5076, median survival T/C
Test: NCI In Vivo Anticancer Drug Screen. Data for tumor model Sarcoma M5076 (intraperitoneal) in B6C3F1 mice
Settings: endpoint: median survival time, higher = longer survival
Method in brief: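 The readout is a ratio of survival in drug-treated animals to survival in animals given vehicle alone, taken in mice bearing a transplanted tumour line.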

[1] = dose: 25.0 mg/kg/injection, schedule: Q04DX004 (ip), vehicle: water
[2] = dose: 50.0 mg/kg/injection, schedule: Q04DX004 (ip), vehicle: water
[3] = dose: 50.0 mg/kg/injection, schedule: Q04DX004 (ip), vehicle: Klucel (hydroxypropylcellulose) (HPC)
[4] = dose: 100.0 mg/kg/injection, schedule: Q04DX004 (ip), vehicle: Klucel (hydroxypropylcellulose) (HPC)
[5] = dose: 200.0 mg/kg/injection, schedule: Q04DX004 (ip), vehicle: Klucel (hydroxypropylcellulose) (HPC)
[6] = dose: 400.0 mg/kg/injection, schedule: Q04DX004 (ip), vehicle: Klucel (hydroxypropylcellulose) (HPC)
[7] = dose: 50.0 mg/kg/injection, schedule: Q04DX004 (ip), vehicle: saline

**Q.** With c1nnc(NCNc2nncs2)s1 as the molecule, how does the T/C (dose: 25.0 mg/kg/injection, schedule: Q04DX004 (ip), vehicle: suspension in saline) read?
**A.** 113 % of control

**Q.** What about the T/C (dose: 50.0 mg/kg/injection, schedule: Q04DX004 (ip), vehicle: suspension in saline) of the same molecule?
**A.** 122 % of control

**Q.** What about the T/C (dose: 144.0 mg/kg/injection, schedule: Q04DX004 (ip), vehicle: suspension in saline) of the same molecule?
**A.** 154 % of control

**Q.** And the T/C (dose: 200.0 mg/kg/injection, schedule: Q04DX004 (ip), vehicle: suspension in saline)?
**A.** 123 % of control

**Q.** And the T/C (dose: 240.0 mg/kg/injection, schedule: Q04DX004 (ip), vehicle: suspension in saline)?
**A.** 164 % of control

**Q.** And the T/C (dose: 400.0 mg/kg/injection, schedule: Q04DX004 (ip), vehicle: suspension in saline)?
**A.** 168 % of control and 177 % of control

**Q.** What does the source list for O=C1N(CCN2CCC3(CC2)OCCO3)CCN1c1cc(Cl)cc(Cl)c1?
**A.** T/C [1]: 104 % of control; T/C [2]: 102 % of control

**Q.** O=NNc1cccnc1 was tested. Which T/C (dose: 12.5 mg/kg/injection, schedule: Q04DX004 (ip), vehicle: water) did it give?
**A.** 99 % of control and 119 % of control

**Q.** What about the T/C [1] of the same molecule?
**A.** 110 % of control and 113 % of control

**Q.** And the T/C [2]?
**A.** 97 % of control and 110 % of control

**Q.** And the T/C (dose: 100.0 mg/kg/injection, schedule: Q04DX004 (ip), vehicle: water)?
**A.** 124 % of control

**Q.** Which T/C (dose: 50.0 mg/kg/injection, schedule: Q04DX004 (ip), vehicle: saline with Tween-80) does the source give for Cc1cccc(-n2c(CC#N)n[nH]c2=S)c1 here?
**A.** 115 % of control

**Q.** And the T/C (dose: 100.0 mg/kg/injection, schedule: Q04DX004 (ip), vehicle: saline with Tween-80)?
**A.** 109 % of control

**Q.** What about the T/C (dose: 200.0 mg/kg/injection, schedule: Q04DX004 (ip), vehicle: saline with Tween-80) of the same molecule?
**A.** 96 % of control

**Q.** And the T/C (dose: 400.0 mg/kg/injection, schedule: Q04DX004 (ip), vehicle: saline with Tween-80)?
**A.** 106 % of control

**Q.** And the T/C (dose: 800.0 mg/kg/injection, schedule: Q04DX004 (ip), vehicle: saline with Tween-80)?
**A.** 88 % of control

**Q.** What does the source list for CCOC(=O)Cn1nc2oc(=O)c(CCN3CCN(c4ccccc4OC)CC3)c(C)c2c1C?
**A.** T/C [3]: 103 % of control; T/C [4]: 103 % of control; T/C [5]: 90 % of control; T/C [6]: 94 % of control; T/C (dose: 800.0 mg/kg/injection, schedule: Q04DX004 (ip), vehicle: Klucel (hydroxypropylcellulose) (HPC)): 89 % of control

**Q.** Which T/C (dose: 12.5 mg/kg/injection, schedule: Q04DX004 (ip), vehicle: acid diluted with saline) does the source give for O=C1c2cccc(NCCCNCCO)c2C(=O)c2cccc(NCCCNCCO)c21 here?
**A.** 116 % of control

**Q.** What about the T/C (dose: 25.0 mg/kg/injection, schedule: Q04DX004 (ip), vehicle: acid diluted with saline) of the same molecule?
**A.** 99 % of control

**Q.** What about the T/C (dose: 50.0 mg/kg/injection, schedule: Q04DX004 (ip), vehicle: acid diluted with saline) of the same molecule?
**A.** 91 % of control

**Q.** With O=[N+]([O-])c1ccc([I+]c2ccccc2)cc1 as the molecule, how does the T/C (dose: 6.25 mg/kg/injection, schedule: Q04DX004 (ip), vehicle: Klucel (hydroxypropylcellulose) (HPC)) read?
**A.** 95 % of control

**Q.** What about the T/C (dose: 12.5 mg/kg/injection, schedule: Q04DX004 (ip), vehicle: Klucel (hydroxypropylcellulose) (HPC)) of the same molecule?
**A.** 109 % of control

**Q.** What about the T/C (dose: 25.0 mg/kg/injection, schedule: Q04DX004 (ip), vehicle: Klucel (hydroxypropylcellulose) (HPC)) of the same molecule?
**A.** 99 % of control

**Q.** What about the T/C [3] of the same molecule?
**A.** 106 % of control

**Q.** Which results are given for CC(C)(C[NH-])C[NH-].[Cl][Pt+2][Cl]?
**A.** T/C (dose: 0.25 mg/kg/injection, schedule: Q04DX004 (ip), vehicle: water): 116 % of control; T/C (dose: 1.0 mg/kg/injection, schedule: Q04DX004 (ip), vehicle: water): 157 % of control and 174 % of control; T/C (dose: 2.0 mg/kg/injection, schedule: Q04DX004 (ip), vehicle: water): 181 % of control and 198 % of control; T/C (dose: 4.0 mg/kg/injection, schedule: Q04DX004 (ip), vehicle: water): 90 % of control and 241 % of control

**Q.** With CN1C(=O)C(=O)N(Cc2ccc(CN3C(=O)C(=O)N(C)C3=O)cc2)C1=O as the molecule, how does the T/C [3] read?
**A.** 98 % of control

**Q.** And the T/C [4]?
**A.** 94 % of control

**Q.** And the T/C [5]?
**A.** 115 % of control

**Q.** And the T/C [6]?
**A.** 92 % of control

**Q.** What does the source list for CO[C@H](/C(C)=C/C=C/C(C)=C/c1coc(C)n1)[C@H](C)[C@H]1C[C@@H](O)[C@@]2(C)O[C@H]2/C=C/[C@@H](C)[C@@H]2C[C@@H](CC(=O)O2)C[C@H]2O[C@@H]2C(=O)O1?
**A.** T/C (dose: 0.06 mg/kg/injection, schedule: Q04DX004 (ip), vehicle: other): 110 % of control; T/C (dose: 0.09 mg/kg/injection, schedule: Q04DX004 (ip), vehicle: Klucel (hydroxypropylcellulose) (HPC)): 116 % of control; T/C (dose: 0.09 mg/kg/injection, schedule: Q04DX004 (ip), vehicle: other): 108 % of control and 113 % of control; T/C (dose: 0.12 mg/kg/injection, schedule: Q04DX004 (ip), vehicle: Klucel (hydroxypropylcellulose) (HPC)): 118 % of control; T/C (dose: 0.13 mg/kg/injection, schedule: Q01DX005 (sc), vehicle: other): 109 % of control; T/C (dose: 0.13 mg/kg/injection, schedule: Q04DX004 (ip), vehicle: Klucel (hydroxypropylcellulose) (HPC)): 115 % of control and 121 % of control; T/C (dose: 0.13 mg/kg/injection, schedule: Q04DX004 (ip), vehicle: other): 110 % of control; T/C (dose: 0.13 mg/kg/injection, schedule: Q04DX004 (iv), vehicle: other): 112 % of control; T/C (dose: 0.2 mg/kg/injection, schedule: Q01DX001 (sc), vehicle: other): 102 % of control; T/C (dose: 0.2 mg/kg/injection, schedule: Q01DX005 (sc), vehicle: other): 114 % of control; T/C (dose: 0.2 mg/kg/injection, schedule: Q01DX013 (ip), vehicle: other): 162 % of control; T/C (dose: 0.2 mg/kg/injection, schedule: Q04DX004 (ip), vehicle: Klucel (hydroxypropylcellulose) (HPC)): 119 % of control; T/C (dose: 0.2 mg/kg/injection, schedule: Q04DX004 (ip), vehicle: other): 115 % of control and 121 % of control and 122 % of control; T/C (dose: 0.2 mg/kg/injection, schedule: Q04DX004 (iv), vehicle: other): 110 % of control; T/C (dose: 0.25 mg/kg/injection, schedule: Q04DX004 (ip), vehicle: Klucel (hydroxypropylcellulose) (HPC)): 118 % of control; T/C (dose: 0.3 mg/kg/injection, schedule: Q01DX001 (sc), vehicle: other): 105 % of control; T/C (dose: 0.3 mg/kg/injection, schedule: Q01DX005 (sc), vehicle: other): 115 % of control; T/C (dose: 0.3 mg/kg/injection, schedule: Q01DX013 (ip), vehicle: other): 163 % of control; T/C (dose: 0.3 mg/kg/injection, schedule: Q04DX004 (ip), vehicle: Klucel (hydroxypropylcellulose) (HPC)): 123 % of control; T/C (dose: 0.3 mg/kg/injection, schedule: Q04DX004 (ip), vehicle: other): 123 % of control; T/C (dose: 0.3 mg/kg/injection, schedule: Q04DX004 (iv), vehicle: other): 117 % of control; T/C (dose: 0.44 mg/kg/injection, schedule: Q04DX004 (iv), vehicle: other): 122 % of control; T/C (dose: 0.45 mg/kg/injection, schedule: Q01DX001 (sc), vehicle: other): 109 % of control; T/C (dose: 0.67 mg/kg/injection, schedule: Q01DX001 (sc), vehicle: other): 99 % of control; T/C (dose: 0.67 mg/kg/injection, schedule: Q04DX004 (ip), vehicle: Klucel (hydroxypropylcellulose) (HPC)): 150 % of control; T/C (dose: 1.0 mg/kg/injection, schedule: Q01DX001 (sc), vehicle: other): 104 % of control; T/C (dose: 1.0 mg/kg/injection, schedule: Q04DX004 (ip), vehicle: other): 169 % of control; T/C (dose: 1.5 mg/kg/injection, schedule: Q01DX001 (sc), vehicle: other): 110 % of control; T/C (dose: 1.5 mg/kg/injection, schedule: Q04DX004 (ip), vehicle: Klucel (hydroxypropylcellulose) (HPC)): 161 % of control; T/C (dose: 0.67 micrograms per hour, schedule: Q#X X024 (sc), vehicle: other): 122 % of control; T/C (dose: 0.67 micrograms per hour, schedule: Q#X X072 (sc), vehicle: other): 152 % of control; T/C (dose: 1.0 micrograms per hour, schedule: Q#X X072 (sc), vehicle: other): 150 % of control; T/C (dose: 55.6 micrograms/kg/injection, schedule: Q03HX008 (sc), vehicle: other): 110 % of control; T/C (dose: 83.4 micrograms/kg/injection, schedule: Q03HX008 (sc), vehicle: other): 118 % of control; T/C (dose: 125.0 micrograms/kg/injection, schedule: Q03HX008 (sc), vehicle: other): 123 % of control; T/C (dose: 281.0 micrograms/kg/injection, schedule: Q03HX008 (sc), vehicle: other): 120 % of control

**Q.** Which results are given for CN1C2CCC1C(Br)C(=O)C2 (stereo not given)?
**A.** T/C [7]: 101 % of control; T/C (dose: 100.0 mg/kg/injection, schedule: Q04DX004 (ip), vehicle: saline): 104 % of control; T/C (dose: 200.0 mg/kg/injection, schedule: Q04DX004 (ip), vehicle: saline): 103 % of control

**Q.** With CCN(Cc1ccc(Cl)c(Cl)c1)c1ccc2nc(N)nc(N)c2c1C as the molecule, how does the T/C (dose: 6.25 mg/kg/injection, schedule: Q04DX004 (ip), vehicle: saline) read?
**A.** 107 % of control

**Q.** And the T/C (dose: 12.5 mg/kg/injection, schedule: Q04DX004 (ip), vehicle: saline)?
**A.** 107 % of control and 122 % of control

**Q.** And the T/C (dose: 25.0 mg/kg/injection, schedule: Q04DX004 (ip), vehicle: saline)?
**A.** 118 % of control (2×) and 123 % of control

**Q.** What about the T/C [7] of the same molecule?
**A.** 110 % of control
